Results on 1 compound are retold here after patent US20090285773A1, “Hepatitis C Virus Inhibitors” (Bristol-Myers Squibb Company, priority 2008, published 2009).

Bounds are passed on as bounds.

What all share (type): biochemical
The target of assay [1] is T1, HCV NS3/4A protease complex, H77 strain (1a genotype) (Hepatitis C virus genotype 1a, UniProt P27958, C1454S/C1711G).
T1 construct: DNA encoding the recombinant HCV NS3/4A protease complex (amino acids 1027 to 1711) for these strains; His tag (inferred from pET21b vector and Ni-NTA purification); made in house; host or cells: Escherichia coli BL21 (DE3)
The assay can be described thus: FRET peptide assay, HCV NS3/4A protease complex, H77 strain. From the text: (§1) HCV NS3 protease complexes, derived from the BMS strain, H77 strain or J4L6S strain, were generated, as described below. These purified recombinant proteins were generated for use in a homogeneous assay (see below) to provide an indication of how effective compounds of the present disclosure would be in inhibiting HCV NS3 proteolytic activity.
(§2) Serum from an HCV-infected patient was obtained from Dr. T. Wright, San Francisco Hospital. An engineered full-length cDNA (compliment deoxyribonucleic acid) template of the HCV genome (BMS strain) was constructed from DNA fragments obtained by reverse transcription-PCR (RT-PCR) of serum RNA (ribonucleic acid) and using primers selected on the basis of homology between other genotype 1a strains. From the determination of the entire genome sequence, a genotype 1a was assigned to the HCV isolate according to the classification of Simmonds et al. (See P Simmonds, K A Rose, S Graham, S W Chan, F McOmish, B C Dow, E A Follett, P L Yap and H Marsden, J. Clin. Microbiol., 31(6), 1493-1503 (1993)). […]

For assay [2], the target named is T2, HCV NS3/4A protease complex, J4L6S strain (1b genotype) (Hepatitis C virus genotype 1b, UniProt O92972, C1454S/C1711G).
T2 construct: DNA encoding the recombinant HCV NS3/4A protease complex (amino acids 1027 to 1711) for these strains; His tag (inferred from pET21b vector and Ni-NTA purification); made in house; host or cells: Escherichia coli BL21 (DE3)
In words: FRET peptide assay, HCV NS3/4A protease complex, J4L6S strain.
Source text: as §1, §2

In the next assay the target is T3, human liver cathepsin B (Homo sapiens, UniProt P07858).
T3 construct: host or cells: human liver
The assay can be described thus: Specificity assay, cathepsin B. The following applies: read-out: Cathepsin B activity in the specificity assays. The procedure:
The specificities of compounds of the present disclosure were determined against a variety of serine proteases: human neutrophil elastase (HNE), porcine pancreatic elastase (PPE) and human pancreatic chymotrypsin and one cysteine protease: human liver cathepsin B. In all cases a 96-well plate format protocol using a fluorometric Amino-Methyl-Coumarin (AMC) substrate specific for each enzyme was used as described previously (PCT Patent Application No. WO 00/09543) with some modifications to the serine protease assays. All enzymes were purchased from Sigma, EMDbiosciences while the substrates were from Bachem, Sigma and EMDbiosciences.
Compound concentrations varied from 100 to 0.4 μM depending on their potency. The enzyme assays were each initiated by addition of substrate to enzyme-inhibitor pre-incubated for 10 min at room temperature and hydrolysis to 15% conversion as measured on cytofluor. […]
The percentage of inhibition was calculated using the formula: […]

T1 sequence (P27958 1027-1711 C1454S/C1711G, one chain of several): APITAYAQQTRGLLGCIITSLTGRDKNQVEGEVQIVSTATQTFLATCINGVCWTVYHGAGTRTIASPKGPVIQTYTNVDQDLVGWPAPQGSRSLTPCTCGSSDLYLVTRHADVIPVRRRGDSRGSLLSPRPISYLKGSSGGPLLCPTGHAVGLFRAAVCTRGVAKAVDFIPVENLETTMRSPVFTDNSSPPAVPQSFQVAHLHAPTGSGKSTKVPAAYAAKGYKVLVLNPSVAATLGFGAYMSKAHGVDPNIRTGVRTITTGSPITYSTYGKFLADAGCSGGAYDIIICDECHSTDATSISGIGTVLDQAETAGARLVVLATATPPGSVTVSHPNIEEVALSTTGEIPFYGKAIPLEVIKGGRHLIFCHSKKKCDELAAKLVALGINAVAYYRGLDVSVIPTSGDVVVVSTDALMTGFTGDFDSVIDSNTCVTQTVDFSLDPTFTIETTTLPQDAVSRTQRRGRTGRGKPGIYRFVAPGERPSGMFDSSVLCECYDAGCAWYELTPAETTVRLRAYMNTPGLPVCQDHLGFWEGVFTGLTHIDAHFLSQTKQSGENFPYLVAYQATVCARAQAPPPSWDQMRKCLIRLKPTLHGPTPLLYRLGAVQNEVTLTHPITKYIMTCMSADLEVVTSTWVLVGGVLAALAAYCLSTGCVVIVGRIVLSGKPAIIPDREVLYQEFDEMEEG
T2 sequence (O92972 1027-1711 C1454S/C1711G, one chain of several): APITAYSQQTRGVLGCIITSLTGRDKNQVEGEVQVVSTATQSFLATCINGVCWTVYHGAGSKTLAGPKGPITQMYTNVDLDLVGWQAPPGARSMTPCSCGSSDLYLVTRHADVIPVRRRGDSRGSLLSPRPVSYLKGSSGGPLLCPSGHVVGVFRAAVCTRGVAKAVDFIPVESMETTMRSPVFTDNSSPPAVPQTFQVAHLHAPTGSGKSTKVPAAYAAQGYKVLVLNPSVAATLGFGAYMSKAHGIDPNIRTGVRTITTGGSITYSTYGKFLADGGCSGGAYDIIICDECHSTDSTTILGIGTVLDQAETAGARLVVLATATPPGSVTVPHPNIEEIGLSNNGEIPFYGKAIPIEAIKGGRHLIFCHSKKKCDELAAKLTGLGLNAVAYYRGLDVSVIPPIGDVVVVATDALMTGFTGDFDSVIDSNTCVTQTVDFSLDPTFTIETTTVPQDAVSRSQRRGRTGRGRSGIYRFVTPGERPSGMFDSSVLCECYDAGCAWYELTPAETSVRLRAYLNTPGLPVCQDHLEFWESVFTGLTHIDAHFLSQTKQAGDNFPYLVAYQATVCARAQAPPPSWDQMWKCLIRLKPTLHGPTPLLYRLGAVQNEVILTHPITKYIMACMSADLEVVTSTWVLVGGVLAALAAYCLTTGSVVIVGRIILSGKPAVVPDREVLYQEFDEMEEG

Consider `COc1ccc2c(O[C@@H]3C[C@H]4C(=O)N[C@]5(C(=O)NS(=O)(=O)C6CC6)C[C@H]5/C=C\CCCCC[C@H](Nc5ccc(OC)nc5)C(=O)N4C3)nccc2c1` (single isomer, unassigned) [Compound 1], for which the IC50 was 1.9 nM in assay [1], 1.2 nM in assay [2] and over 25000 nM at human liver cathepsin B.
